These results are taken from patent US20040248919A1, “Fluorinated trienes and their use as rxr modulators” (priority 2001, published 2004).

Holding throughout (assay): RAR binding, competition with tritiated retinoid
Assay [1] concerns the target T1, RARα (Homo sapiens, UniProt P10276).
T1 sequence (P10276 1-462): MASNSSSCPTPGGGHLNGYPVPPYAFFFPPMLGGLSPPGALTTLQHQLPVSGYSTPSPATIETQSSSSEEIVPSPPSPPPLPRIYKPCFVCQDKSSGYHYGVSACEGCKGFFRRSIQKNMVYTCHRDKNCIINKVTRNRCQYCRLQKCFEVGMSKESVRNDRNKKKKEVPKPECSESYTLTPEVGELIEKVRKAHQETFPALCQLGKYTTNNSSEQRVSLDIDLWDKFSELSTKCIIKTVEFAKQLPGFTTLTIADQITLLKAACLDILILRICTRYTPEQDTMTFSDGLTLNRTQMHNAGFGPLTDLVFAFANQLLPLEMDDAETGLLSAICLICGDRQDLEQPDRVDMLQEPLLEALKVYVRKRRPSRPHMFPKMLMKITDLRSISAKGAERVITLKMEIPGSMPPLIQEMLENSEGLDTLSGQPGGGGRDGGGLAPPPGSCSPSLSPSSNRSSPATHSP
Particulars: read-out: RAR Binding alpha. From the text:
(§1) In addition to the cotransfection data, the binding of selected compounds of the present invention to the RAR and RXR receptors was also investigated according to the methodology described in M. F., Boehm, et al., “Synthesis and Structure-Activity Relation-ships of Novel Retinoid X Receptor Selective Retinoids”, 37 J. Med. Chem., 2930 (1994); M. F. Boehm, et al., “Synthesis of High Specific Activity [^3H]-9-cis Retinoic Acid and Its Application for Identifying Retinoids with Unusual Binding Properties”, 37 J. Med. Chem., 408 (1994), and E. A. Allegretto, et al., “Characterization and Comparison of Hormone-Binding and Transactivation Properties of Retinoic Acid and Retinoid X Receptors Expressed in Mammalian Cells and Yeast”, 268 J. Biol. Chem., 22625 (1993), the disclosures of which are herein incorporated by reference.
(§2) Non-specific binding was defined as that binding remaining in the presence of 500 nM of the appropriate unlabelled compound. At the end of the incubation period, bound ligand was separated from free. The amount of bound tritiated retinoid was determined by liquid scintillation counting of an aliquot (700 μL) of the supernatant fluid or the hydroxylapatite pellet.
(§3) After correcting for non-specific binding, IC50 values were determined. The IC50 value is defined as the concentration of competing ligand needed to reduce specific binding by 50%. The IC50 value was determined graphically from a log-logit plot of the data. The Ki values were determined by application of the Cheng-Prussof equation to the IC50 values, the labeled ligand concentration and the Kd of the labeled ligand.

Assay [2] deals with T2, RARβ (Homo sapiens, UniProt P10826).
T2 sequence (P10826 1-455): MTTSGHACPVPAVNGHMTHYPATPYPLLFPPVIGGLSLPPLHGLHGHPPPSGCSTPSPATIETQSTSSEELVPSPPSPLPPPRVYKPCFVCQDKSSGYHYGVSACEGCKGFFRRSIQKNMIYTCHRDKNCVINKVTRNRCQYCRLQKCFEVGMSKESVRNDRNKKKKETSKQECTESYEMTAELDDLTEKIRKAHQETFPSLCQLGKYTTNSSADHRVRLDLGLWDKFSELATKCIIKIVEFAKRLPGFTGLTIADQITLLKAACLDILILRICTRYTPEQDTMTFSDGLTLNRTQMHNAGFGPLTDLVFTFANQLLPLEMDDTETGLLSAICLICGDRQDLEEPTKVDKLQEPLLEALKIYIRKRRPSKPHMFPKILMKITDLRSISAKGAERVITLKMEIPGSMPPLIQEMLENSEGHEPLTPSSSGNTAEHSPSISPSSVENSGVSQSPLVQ
Particulars: read-out: RAR Binding beta.
Excerpt: as §1, §2, §3

Assay [3] deals with T3, RARγ (Homo sapiens, UniProt P13631).
T3 sequence (P13631 1-454): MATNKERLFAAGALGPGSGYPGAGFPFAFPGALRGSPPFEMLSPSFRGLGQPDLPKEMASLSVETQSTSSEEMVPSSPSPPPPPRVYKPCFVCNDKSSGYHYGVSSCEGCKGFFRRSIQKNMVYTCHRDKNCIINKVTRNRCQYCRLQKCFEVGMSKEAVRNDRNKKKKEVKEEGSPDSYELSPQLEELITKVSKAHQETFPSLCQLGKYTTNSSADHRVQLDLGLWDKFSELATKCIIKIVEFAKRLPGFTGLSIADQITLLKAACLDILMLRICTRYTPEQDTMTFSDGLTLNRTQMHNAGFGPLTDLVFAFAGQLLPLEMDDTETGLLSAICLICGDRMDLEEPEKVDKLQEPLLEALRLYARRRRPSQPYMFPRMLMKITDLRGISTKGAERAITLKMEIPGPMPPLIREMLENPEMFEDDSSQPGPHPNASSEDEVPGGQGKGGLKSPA
Particulars: read-out: RAR Binding gamma.
Excerpt: as §1, §2, §3

On to `C/C(=C/C=C(F)/C(C)=C/C(=O)O)c1cc(C(C)(C)C)cc(C(C)(C)C)c1OCC(F)F` [Example 1, 7-[3,5-di-tert-butyl-2-(2,2-difluoroethoxy)-phenyl]4-fluoro-3-methyl-octa-2,4,6-trienoic acid], for which the Ki is 1.15 µM in assay [1] and 6.63 µM in assay [2].

Consider `C/C(=C/C(F)=C/C(C)=C/C(=O)O)c1cc(C(C)(C)C)cc(C(C)(C)C)c1OCC(F)F` [Example 2, 7-[3,5-Di-tert-butyl-2-(2,2-difluoroethoxy)-phenyl]-5-fluoro-3-methyl-octa-2,4,6-trienoic acid], for which the figures for the Ki in assay [1] and in assay [2] were more than 10 µM and 2.75 µM, respectively.

Regarding `CCCCOc1c(\C(C)=C/C=C/C(=C/C(=O)O)C(F)(F)F)cc(C(C)C)cc1C(C)C` [Example 3, (2Z,4E,6Z)-7-(2-Butoxy-3,5-diisopropylphenyl)-3-trifluoromethyl-octa-2,4,6-trienoic acid], the Ki in assay [3], in assay [1] and in assay [2] was more than 10 µM in each case.

Turning to `CCCCOc1c(\C(C)=C/C=C/C(=C\C(=O)O)C(F)(F)F)cc(C(C)C)cc1C(C)C` [Example 4, (2E,4E,6Z)-7-(2-Butoxy-3,5-diisopropylphenyl)-3-trifluoromethyl-octa-2,4,6-trienoic acid], the Ki in assay [3], in assay [1] and in assay [2] was more than 10 µM throughout.

As for `CCOc1c(\C(=C/C=C/C(C)=C/C(=O)O)C(F)(F)F)cc(C(C)(C)C)cc1C(C)(C)C` [Example 5, (2E,4E,6E)-3-methyl-7-(2-ethoxy-3,5-di-tert-butylphenyl)-8,8,8-trifluoroocta-2,4,6-trienoic acid], the Ki is more than 10 µM in assay [3], more than 10 µM in assay [1] and 7.25 µM in assay [2].
